The source of these data is EP3436445B1, “HISTONE DEMETHYLASE INHIBITORS” (Celgene Quanticel Research, Inc., priority 2016, dated 2017).

In general, IC50 refers to the concentration needed to halve the response being measured. Read a high IC50 as a need for much substance.

SMILES strings stand for the structures.

The first experiment deals with T1, FBXL10 (Homo sapiens, UniProt Q8NHM5).
T1 construct: purchased BPS Bioscience 50120
T1 sequence (Q8NHM5 1-650): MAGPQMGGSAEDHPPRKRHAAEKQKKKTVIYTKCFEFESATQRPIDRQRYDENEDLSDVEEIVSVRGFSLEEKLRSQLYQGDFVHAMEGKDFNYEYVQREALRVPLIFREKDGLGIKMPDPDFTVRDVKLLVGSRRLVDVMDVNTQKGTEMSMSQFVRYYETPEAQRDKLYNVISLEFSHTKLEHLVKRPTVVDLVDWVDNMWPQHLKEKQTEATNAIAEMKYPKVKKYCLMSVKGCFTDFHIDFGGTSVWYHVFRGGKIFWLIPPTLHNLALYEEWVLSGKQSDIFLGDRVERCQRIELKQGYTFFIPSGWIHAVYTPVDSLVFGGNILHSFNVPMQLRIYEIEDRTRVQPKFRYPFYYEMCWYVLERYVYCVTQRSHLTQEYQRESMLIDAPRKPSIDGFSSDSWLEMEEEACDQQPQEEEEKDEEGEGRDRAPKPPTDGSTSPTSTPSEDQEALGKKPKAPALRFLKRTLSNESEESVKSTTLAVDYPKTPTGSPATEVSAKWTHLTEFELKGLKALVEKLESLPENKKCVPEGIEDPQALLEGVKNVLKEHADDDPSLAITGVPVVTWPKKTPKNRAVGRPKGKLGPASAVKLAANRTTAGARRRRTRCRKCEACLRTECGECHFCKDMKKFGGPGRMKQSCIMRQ
Kind of experiment: FBXL10 in vitro enzyme inhibition assay (AlphaScreen). The settings on record: Table 3; 0.3 nM FBXL10, H3K36me2-biotin labeled peptide. In kind it is biochemical. An excerpt:
This assay determines the ability of a test compound to inhibit FBXL11, FBXL10, and PHF8 demethylase activity. Baculovirus expressed FBXL11 (GenBank Accession #NM_012308, AA1-1162) was purchased from BPS Bioscience (Cat#50102). Baculovirus expressed FBXL10 (GenBank Accession #NM_032590, AA 1-650) was purchased from BPS Bioscience (Cat #50120). Baculovirus expressed PHF8 (GenBank Accession NP_055922.1) was purchased from Active Motif (Cat#31435).
The ability of test compounds to inhibit the activity of FBXL10 was determined in 384-well plate format under the following reaction conditions: 0.3 nM FBXL10, 30 nM H3K36me2-biotin labeled peptide (Anaspec cat # 64442), 0.2 µM alpha-ketoglutaric acid in assay buffer of 50 mM HEPES, pH7.3, 0.005% Brij35, 0.5 mM TCEP, 0.2 mg/ml BSA, 50 µM sodium L-ascorbate, 5 µM ammonium iron(II) sulfate. Reaction product is determined quantitatively by AlphaScreen detection after the addition of detection reagents anti-H3K36me1 antibody, AlphaScreen® Streptavidin-coated Donor beads, and AlphaScreen® Protein A Acceptor beads in 50 mM HEPES, pH7.3, 10 mM NaCl, 0.005% Brij35, 5 mM EDTA, 2 mg/ml BSA to final 10 µg/ml beads.
The assay reaction was initiated by the following: 3 µl of the mixture of 90 nM H3K36me2-biotin labeled peptide and 0.6 µM alpha-ketoglutaric acid with 3 µl of 11-point serial diluted inhibitor in 3% DMSO are added to each well of 384 well Proxiplate (Perkin Elmer), followed by the addition of 3 µl of 0.9 nM FBXL10 to initiate the reaction. The reaction mixture is incubated at room temperature for 1 hour, and terminated by the addition of 3 µl of appropriate dilution of anti H3K36me1 antibody in 50 mM HEPES, pH7.3, 10 mM NaCl, 0.005% Brij35, 5 mM EDTA, 2 mg/ml BSA. Plates will then incubated at room temperature for 40 minutes, followed by addition of 3 µl of 50 µg/ml AlphaScreen® Streptavidin-coated Donor beads and AlphaScreen® Protein A Acceptor beads in 50 mM HEPES, pH7.3, 10 mM NaCl, 0.005% Brij35, 5 mM EDTA, 2 mg/ml BSA. Plates will then be read by EnVision Multilabel Reader in AlphaScreen mode after minimum 2 hour incubation at room temperature. The AlphaScreen signal for each well is used to determine inhibition constant (IC50).
Background: Alpha assays give light when donor and acceptor beads are brought close together.
As to `c1ccc(Cn2cnc(-c3cc4[nH]nnc4cn3)c2)cc1` [Example 44, 1-benzyl-4-{1H-[1,2,3]triazolo[4,5-c]pyridin-6-yl}-1H-imidazole], the IC50 is ≤ 100 nM.
On the same count and under the same terms, for `Clc1ccccc1Cn1cnc(-c2cc3[nH]nnc3cn2)c1` [Example 45, 1-[(2-chlorophenyl)methyl]-4-{1H-[1,2,3]triazolo[4,5-c]pyridin-6-yl}-1H-imidazole] the value was ≤ 100 nM; for `Clc1cccc(Cn2cnc(-c3cc4[nH]nnc4cn3)c2)c1` [Example 46, 1-[(3-chlorophenyl)methyl]-4-{1H-[1,2,3]triazolo[4,5-c]pyridin-6-yl}-1H-imidazole], ≤ 100 nM; for `Clc1ccc(Cn2cnc(-c3cc4[nH]nnc4cn3)c2)cc1` [Example 47, 1-[(4-chlorophenyl)methyl]-4-{1H-[1,2,3]triazolo[4,5-c]pyridin-6-yl}-1H-imidazole], ≤ 100 nM.
The same measure, in the same setting: for `Clc1ccc(Cn2cnc(-c3cc4[nH]nnc4cn3)c2)cc1Cl` [Example 48, 1-[(3,4-dichlorophenyl)methyl]-4-{1H-[1,2,3]triazolo[4,5-c]pyridin-6-yl}-1H-imidazole] the value was ≤ 100 nM; for `Clc1ccc(-n2cnc(-c3cc4[nH]nnc4cn3)c2)cc1` [Example 49, 1-(4-chlorophenyl)-4-{1H-[1,2,3]triazolo[4,5-c]pyridin-6-yl}-1H-imidazole], ≤ 100 nM.
For `Clc1ccccc1-n1cnc(-c2cc3[nH]nnc3cn2)c1` [Example 50, 1-(2-chlorophenyl)-4-{1H-[1,2,3]triazolo[4,5-c]pyridin-6-yl}-1H-imidazole], the concentration for half-maximal inhibition (IC50) is ≤ 100 nM.
`Clc1cccc(-n2cnc(-c3cc4[nH]nnc4cn3)c2)c1` [Example 51, 1-(3-chlorophenyl)-4-{1H-[1,2,3]triazolo[4,5-c]pyridin-6-yl}-1H-imidazole] came in with an IC50 of 100 to 1000 nM.

Staying with this experiment, now noted: Table 5.
Turning to `FC(F)(F)c1[nH]nnc1-c1ccnc(-c2cn(CCc3ccccc3Cl)cn2)c1` [Example 57], the IC50 is ≤ 100 nM.
On to `FC(F)(F)c1[nH]nnc1-c1ccnc(-c2cn(CC3CCCc4ccccc43)cn2)c1` (stereo not shown) [Example 58, 2-{1-[(1,2,3,4-tetrahydronaphthalen-1-yl)methyl]-1H-imidazol-4-yl}-4-[5-(trifluoromethyl)-1H-1,2,3-triazol-4-yl]pyridine], for which the IC50 was ≤ 100 nM.
The compound `CCOc1ccccc1CCn1cnc(-c2cc(-c3nn[nH]c3C(F)(F)F)ccn2)c1` [Example 59] gave an IC50 of 100 to 1000 nM.
The compound `FC(F)(F)c1ccccc1CCn1cnc(-c2cc(-c3nn[nH]c3C(F)(F)F)ccn2)c1` [Example 60, 4-[5-(trifluoromethyl)-1H-1,2,3-triazol-4-yl]-2-(1-{2-[2-(trifluoromethyl)phenyl]ethyl}-1H-imidazol-4-yl)pyridine] returned an IC50 of 100 to 1000 nM.
With `Fc1ccc(Cn2cnc(-c3cc(-c4nn[nH]c4C(F)(F)F)ccn3)c2)cc1` [Example 61, 2-{1-[(4-fluorophenyl)methyl]-1H-imidazol-4-yl}-4-[5-(trifluoromethyl)-1H-1,2,3-triazol-4-yl]pyridine], the IC50 is ≤ 100 nM.
`Fc1ccccc1Cn1cnc(-c2cc(-c3nn[nH]c3C(F)(F)F)ccn2)c1` [Example 62, 2-{1-[(2-fluoroprtenyl)methyl]-1H-imidazol-4-yl}-4-[5-(trifluoromethyl)-1H-1,2,3-triazol-4-yl]pyridine]: the IC50 was ≤ 100 nM.
For the compound `FC(F)(F)c1[nH]nnc1-c1ccnc(-c2cn(Cc3ccc(Cl)cc3)cn2)c1` [Example 63, 2-{1-[(4-chlorophenyl)methyl]-1H-imidazol-4-yl}-4-[5-(trifluoromethyl)-1H-1,2,3-triazol-4-yl]pyridine], the IC50 is ≤ 100 nM.
For `FC(F)(F)c1[nH]nnc1-c1ccnc(-c2cn(Cc3ccccc3Cl)cn2)c1` [Example 64, 2-{1-[(2-chlorophenyl)methyl]-1H-imidazol-4-yl}-4-[5-(trifluoromethyl)-1H-1,2,3-triazol-4-yl]pyridine], the IC50 was ≤ 100 nM.
For `Cc1ccc(Cn2cnc(-c3cc(-c4nn[nH]c4C(F)(F)F)ccn3)c2)cc1` [Example 65, 2-{1-[(4-methylphenyl)methyl]-1H-imidazol-4-yl}-4-[5-(trifluoromethyl)-1H-1,2,3-triazol-4-yl]pyridine], the IC50 was ≤ 100 nM.
Still for that read-out and setting: the value for `Cc1ccccc1Cn1cnc(-c2cc(-c3nn[nH]c3C(F)(F)F)ccn2)c1` [Example 66, 2-{1-[(2-methylphenyl)methyl]-1H-imidazol-4-yl}-4-[5-(trifluoromethyl)-1H-1,2,3-triazol-4-yl]pyridine] was ≤ 100 nM; that for `COc1ccc(Cn2cnc(-c3cc(-c4nn[nH]c4C(F)(F)F)ccn3)c2)cc1` [Example 67, 2-{1-[(4-methoxyphenyl)methyl]-1H-imidazol-4-yl}-4-[5-(trifluoromethyl)-1H-1,2,3-triazol-4-yl]pyridine] was ≤ 100 nM.
On the same count and under the same terms, for `Fc1ccc(Cn2cnc(-c3cc(-c4nn[nH]c4C(F)(F)F)ccn3)c2)c(F)c1` [Example 68, 2-{1-[(2,4-difluorophenyl)methyl]-1H-imidazol-4-yl}-4-[5-(trifluoromethyl)-1H-1,2,3-triazol-4-yl]pyridine] the value was ≤ 100 nM; for `Fc1cccc(F)c1Cn1cnc(-c2cc(-c3nn[nH]c3C(F)(F)F)ccn2)c1` [Example 69, 2-{1-[(2,6-difluorophenyl)methyl]-1H-imidazol-4-yl}-4-[5-(trifluoromethyl)-1H-1,2,3-triazol-4-yl]pyridine], ≤ 100 nM.
The same measure, in the same setting: the value for `Cc1cc(F)ccc1Cn1cnc(-c2cc(-c3nn[nH]c3C(F)(F)F)ccn2)c1` [Example 70, 2-{1-[(4-fluoro-2-methylphenyl)methyl]-1H-imidazol-4-yl}-4-[5-(trifluoromethyl)-1H-1,2,3-triazol-4-yl]pyridine] was ≤ 100 nM; that for `Cc1ccc(Cn2cnc(-c3cc(-c4nn[nH]c4C(F)(F)F)ccn3)c2)c(F)c1` [Example 71, 2-{1-[(2-fluoro-4-methylphenyl)methyl]-1H-imidazol-4-yl}-4-[5-(trifluoromethyl)-1H-1,2,3-triazol-4-yl]pyridine] was ≤ 100 nM.
In the case of `FC(F)(F)c1[nH]nnc1-c1ccnc(-c2cn(Cc3ccccc3)cn2)c1` [Example 72, 2-(1-benzyl-1H-imidazol-4-yl)-4-[5-(trifluoromethyl)-1H-1,2,3-triazol-4-yl]pyridine], the IC50 was ≤ 100 nM.
Consider `CC(c1ccccc1)n1cnc(-c2cc(-c3nn[nH]c3C(F)(F)F)ccn2)c1` (stereo not shown) [Example 73, 2-[1-(1-phenylethyl)-1H-imidazol-4-yl]-4-[5-(trifluoromethyl)-1H-1,2,3-triazol-4-yl]pyridine], for which the IC50 is ≤ 100 nM.
Still for that read-out and setting: the value for `CCC(c1ccccc1)n1cnc(-c2cc(-c3nn[nH]c3C(F)(F)F)ccn2)c1` (stereo not shown) [Example 74, 2-[1-(1-phenylpropyl)-1H-imidazol-4-yl]-4-[5-(trifluoromethyl)-1H-1,2,3-triazol-4-yl]pyridine] was ≤ 100 nM; that for `CC(C)C(c1ccccc1)n1cnc(-c2cc(-c3nn[nH]c3C(F)(F)F)ccn2)c1` (stereo not shown) [Example 75, 2-[1-(2-methyl-1-phenylpropyl)-1H-imidazol-4-yl]-4-[5-(trifluoromethyl)-1H-1,2,3-triazol-4-yl]pyridine] was 100 to 1000 nM.
The same measure, in the same setting: the value for `FC(F)(F)COc1ccccc1Cn1cnc(-c2cc(-c3nn[nH]c3C(F)(F)F)ccn2)c1` [Example 76, 2-(1-{[2-(2,2,2-trifluoroethoxy)phenyl]methyl}-1H-imidazol-4-yl)-4-[5-(trifluoromethyl)-1H-1,2,3-triazol-4-yl]pyridine] was 100 to 1000 nM.
